# Key:
# Test in all cases: relative viability (nuclei count vs DMSO), 5 days (fraction); higher = more cells survive
# [1] = compound: C1CNCCC1C2=CC(=NN2)C3=CC=NC=C3 + O=C(CCCCCCC(=O)Nc1ccccc1)NO [Vorinostat] (partner 1 µM)
# Outline: (§1)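 Medians of duplicate plates are given as relative viability. That measure is the nuclei count in treated wells divided by the count in vehicle wells. Counts were taken on 4× images of lung cancer cell lines in 1536-well plates, 5 days after pin-tool dosing the day after seeding with one drug alone or a fixed anchor-drug dose plus five library-drug doses (not always all listed) in √10 steps.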
# [2] = compound: C[C@@H](N)c1ccc(C(=O)Nc2ccnc3[nH]ccc23)cc1 + COc1cccc2cc(-c3nc([C@H]4CC[C@H](C(=O)O)CC4)n4ncnc(N)c34)[nH]c12 [OSI-027] (partner 0.5 µM)
# Outline: as §1
# Tanzisertib + Alpelisib = compound: O[C@H]1CC[C@H](Nc2ncc3nc(Nc4c(F)cc(F)cc4F)n([C@H]4CCOC4)c3n2)CC1 [Tanzisertib] + Cc1nc(NC(=O)N2CCC[C@H]2C(N)=O)sc1-c1ccnc(C(C)(C)C(F)(F)F)c1 [Alpelisib] (partner 2 µM)
# Outline: as §1
# [3] = compound: C1CNCCC1C2=CC(=NN2)C3=CC=NC=C3 + COc1cccc2cc(-c3nc([C@H]4CC[C@H](C(=O)O)CC4)n4ncnc(N)c34)[nH]c12 [OSI-027] (partner 0.5 µM)
# Outline: as §1
Cell Line,relative viability ([1]; first compound 0.08 µM),relative viability ([1]; first compound 0.8 µM),relative viability ([1]; first compound 2.53 µM),relative viability ([1]; first compound 8 µM),relative viability ([2]; first compound 0.04 µM),relative viability ([2]; first compound 0.1265 µM),relative viability ([2]; first compound 0.4 µM),relative viability ([2]; first compound 4 µM),relative viability (Tanzisertib + Alpelisib; first compound 0.08 µM),relative viability (Tanzisertib + Alpelisib; first compound 0.253 µM),relative viability (Tanzisertib + Alpelisib; first compound 0.8 µM),relative viability (Tanzisertib + Alpelisib; first compound 2.53 µM),relative viability (Tanzisertib + Alpelisib; first compound 8 µM),relative viability ([3]; first compound 0.08 µM),relative viability ([3]; first compound 0.8 µM),relative viability ([3]; first compound 2.53 µM),relative viability ([3]; first compound 8 µM),relative viability ([2]; first compound 1.265 µM)
NCI-H322M,0.95,0.854,0.99,0.953,0.656,0.586,0.63,0.706,0.935,0.648,0.774,0.669,0.776,0.608,0.532,0.653,0.592,
NCI-H1792,,,,,0.796,0.77,0.736,0.65,0.677,0.647,0.737,0.665,0.671,0.74,0.766,0.706,0.749,0.869
LXF-289,0.783,0.785,0.723,0.766,0.639,0.821,0.986,0.763,1.06,1.02,1.05,1.04,1.11,0.847,0.829,0.901,0.728,0.709
HCC-827,0.698,0.861,1.03,0.912,0.849,0.873,0.844,0.764,1.08,0.97,0.946,0.895,0.391,0.666,0.673,0.806,0.782,0.922
EMC-BAC-2,,0.475,0.498,0.436,0.294,0.399,0.299,0.279,0.78,0.754,0.725,0.688,0.688,0.379,0.368,0.421,0.368,0.346
NCI-H520,0.677,0.777,0.746,0.7,0.287,0.333,0.329,0.335,0.958,0.886,1.07,0.937,0.927,0.247,0.2,0.236,0.311,0.334
NCI-H1755,0.717,0.737,0.628,0.736,0.606,0.815,0.758,0.587,1.05,0.897,0.918,0.84,0.852,0.738,,0.754,0.69,0.638
NCI-H1993,0.883,0.722,0.767,1.03,0.529,0.556,0.574,0.603,0.661,0.663,0.524,0.693,0.699,0.581,0.533,0.529,0.578,0.577
NCI-H23,0.656,,0.668,0.721,0.603,0.577,0.592,0.674,0.63,0.617,0.705,0.747,0.718,0.676,0.655,0.653,0.67,
SW 900,0.521,,0.684,0.563,0.657,0.608,0.596,0.824,,,,,,0.51,0.569,0.713,0.464,0.688
NCI-H1437,0.863,0.94,0.912,0.971,0.947,0.838,0.853,0.919,0.998,1,0.964,0.958,0.722,0.835,0.922,0.896,0.97,1
SK-MES-1,0.979,0.978,1.22,1.07,0.61,0.574,0.573,0.602,0.922,0.904,0.951,0.921,0.856,0.51,0.565,0.624,0.593,0.673
NCI-H2405,1.04,0.993,1.06,0.901,0.594,0.742,0.695,0.36,0.933,0.696,0.805,0.83,0.547,0.72,0.627,0.731,0.674,0.542
NCI-H1299,,,,,,,,,1.07,1.05,1.08,1.01,1.14,,,,,
NCI-H1563,,,,,0.796,0.767,0.679,0.846,0.92,0.935,0.875,0.862,0.977,0.74,0.771,0.749,0.769,0.816
NCI-H1650,0.46,0.597,0.804,0.489,0.825,0.773,0.761,0.664,,,,,,0.552,0.744,0.751,0.625,0.707
Calu-6,,,,,,,,,1.12,0.96,0.934,0.994,0.988,,,,,
NCI-H1703,,,,,,,,,0.409,0.251,0.328,0.309,0.303,,,,,
EBC-1,,,,,,,,,0.999,0.789,0.829,0.792,0.697,,,,,
NCI-H2342,0.706,0.71,0.774,0.809,0.711,0.694,0.763,0.675,,,,,,0.627,0.577,0.634,0.674,0.655
ChaGo-K-1,0.731,0.806,0.764,0.765,0.496,0.487,0.487,0.564,,,,,,0.559,0.557,0.589,0.575,0.297
NCI-H1648,0.381,0.518,,0.488,0.265,0.301,0.267,0.346,,,,,,0.242,0.271,0.292,0.245,0.289
NCI-H522,0.911,0.762,0.998,1.04,0.657,0.67,0.78,0.737,,,,,,0.731,0.813,0.693,0.709,0.764
A549,,,,,,,,,0.759,0.648,0.709,0.706,0.712,,,,,
